Data published in the supplement of paper PMC10307832.

Columns and labels:
Experiment in all cases: relative viability (nuclei count vs DMSO), 5 days (fraction); higher = more cells survive
[1] = compound: C1CNCCC1C2=CC(=NN2)C3=CC=NC=C3 + Cc1nc(NC(=O)N2CCC[C@H]2C(N)=O)sc1-c1ccnc(C(C)(C)C(F)(F)F)c1 [Alpelisib] (partner 2 µM)
Summary of the method: (§1)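 Lung cancer cell lines in 1536-well plates got either a single drug or a fixed anchor-drug dose together with five library-drug doses (not always all listed) in √10 steps, by pin tool, on the day after seeding. Nuclei were counted after 5 days, and relative viability is the treated-to-vehicle ratio of nuclei counts. Values are medians of duplicate plates.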

[2] = compound: C[C@@H](N)c1ccc(C(=O)Nc2ccnc3[nH]ccc23)cc1 + Cc1cc(Nc2cc(N3CCN(C)CC3)nc(Sc3ccc(NC(=O)C4CC4)cc3)n2)n[nH]1 [Tozasertib] (partner 0.1 µM)
Summary of the method: as §1

Tanzisertib + Navitoclax = compound: O[C@H]1CC[C@H](Nc2ncc3nc(Nc4c(F)cc(F)cc4F)n([C@H]4CCOC4)c3n2)CC1 [Tanzisertib] + CC1(C)CCC(c2ccc(Cl)cc2)=C(CN2CCN(c3ccc(C(=O)NS(=O)(=O)c4ccc(N[C@H](CCN5CCOCC5)CSc5ccccc5)c(S(=O)(=O)C(F)(F)F)c4)cc3)CC2)C1 [Navitoclax] (partner 0.5 µM)
Summary of the method: as §1

Tanzisertib + AZD7762 = compound: O[C@H]1CC[C@H](Nc2ncc3nc(Nc4c(F)cc(F)cc4F)n([C@H]4CCOC4)c3n2)CC1 [Tanzisertib] + NC(=O)Nc1cc(-c2cccc(F)c2)sc1C(=O)N[C@H]1CCCNC1 [AZD7762] (partner 0.2 µM)
Summary of the method: as §1

Cell Line | relative viability ([1]; first compound 0.08 µM) | relative viability ([1]; first compound 0.8 µM) | relative viability ([1]; first compound 2.53 µM) | relative viability ([1]; first compound 8 µM) | relative viability ([2]; first compound 0.04 µM) | relative viability ([2]; first compound 0.1265 µM) | relative viability ([2]; first compound 0.4 µM) | relative viability ([2]; first compound 1.265 µM) | relative viability ([2]; first compound 4 µM) | relative viability (Tanzisertib + Navitoclax; first compound 0.08 µM) | relative viability (Tanzisertib + Navitoclax; first compound 0.253 µM) | relative viability (Tanzisertib + Navitoclax; first compound 0.8 µM) | relative viability (Tanzisertib + Navitoclax; first compound 2.53 µM) | relative viability (Tanzisertib + Navitoclax; first compound 8 µM) | relative viability (Tanzisertib + AZD7762; first compound 0.08 µM) | relative viability (Tanzisertib + AZD7762; first compound 0.253 µM) | relative viability (Tanzisertib + AZD7762; first compound 0.8 µM) | relative viability (Tanzisertib + AZD7762; first compound 2.53 µM) | relative viability (Tanzisertib + AZD7762; first compound 8 µM)
NCI-H1651 | 0.767 | 1.09 | 0.904 | 1 | 0.844 | 0.602 | 0.798 | 0.871 | 0.885 | 1.07 | 0.915 | 1.18 | 1.11 | 0.854 | 0.507 | 0.464 | 0.43 | 0.426 | 0.378
NCI-H441 | – | 0.628 | 0.833 | 0.708 | 0.742 | 0.716 | 0.65 | – | 0.627 | 0.456 | 0.601 | 0.629 | 0.773 | 0.584 | 1.21 | 0.989 | 1.07 | 1.11 | 1.08
